Test results published in PubChem BioAssay AID1259407 (Chemical Carcinogenesis Research Information System (CCRIS), 2018).
Active and inactive are the calls of the source. The rule behind the calls is not given here.

Test system: CCRIS mutagenicity, Ames/micronucleus/aberration tests
Experiment: CCRIS mutagenicity studies
[1] = Test System: AMES SALMONELLA TYPHIMURIUM, Strain/Indicator: TA102, Metabolic Activation: NONE, Method: STANDARD PLATE

## CC(C)Cc1ccc(C(C)C(=O)O)cc1 (centres undefined)
Test System: AMES SALMONELLA TYPHIMURIUM, Strain/Indicator: TA97A, Metabolic Activation: NONE, Method: STANDARD PLATE
  mutagenic call: inactive; negative
Test System: AMES SALMONELLA TYPHIMURIUM, Strain/Indicator: TA97A, Metabolic Activation: RAT, LIVER, S-9, PHENOBARBITAL, Method: STANDARD PLATE
  mutagenic call: inactive; negative
Test System: AMES SALMONELLA TYPHIMURIUM, Strain/Indicator: TA98, Metabolic Activation: HAMSTER, LIVER, S-9, AROCLOR 1254, Method: STANDARD PLATE
  mutagenic call: inactive; negative
Test System: AMES SALMONELLA TYPHIMURIUM, Strain/Indicator: TA98, Metabolic Activation: MOUSE, LIVER, S-9, AROCLOR 1254, Method: STANDARD PLATE
  mutagenic call: inactive; negative
Test System: AMES SALMONELLA TYPHIMURIUM, Strain/Indicator: TA98, Metabolic Activation: NONE, Method: STANDARD PLATE
  mutagenic call: inactive; negative
Test System: AMES SALMONELLA TYPHIMURIUM, Strain/Indicator: TA98, Metabolic Activation: RAT, LIVER, S-9, AROCLOR 1254, Method: STANDARD PLATE
  mutagenic call: inactive; negative
Test System: AMES SALMONELLA TYPHIMURIUM, Strain/Indicator: TA100, Metabolic Activation: HAMSTER, LIVER, S-9, AROCLOR 1254, Method: STANDARD PLATE
  mutagenic call: inactive; negative
Test System: AMES SALMONELLA TYPHIMURIUM, Strain/Indicator: TA100, Metabolic Activation: MOUSE, LIVER, S-9, AROCLOR 1254, Method: STANDARD PLATE
  mutagenic call: inactive; negative
Test System: AMES SALMONELLA TYPHIMURIUM, Strain/Indicator: TA100, Metabolic Activation: NONE, Method: STANDARD PLATE
  mutagenic call: inactive; negative
Test System: AMES SALMONELLA TYPHIMURIUM, Strain/Indicator: TA100, Metabolic Activation: RAT, LIVER, S-9, AROCLOR 1254, Method: STANDARD PLATE
  mutagenic call: inactive; negative
Test System: AMES SALMONELLA TYPHIMURIUM, Strain/Indicator: TA100, Metabolic Activation: RAT, LIVER, S-9, PHENOBARBITAL, Method: STANDARD PLATE
  mutagenic call: inactive; negative
[1]
  mutagenic call: inactive; negative
Test System: AMES SALMONELLA TYPHIMURIUM, Strain/Indicator: TA102, Metabolic Activation: RAT, LIVER, S-9, PHENOBARBITAL, Method: STANDARD PLATE
  mutagenic call: inactive; negative
Test System: AMES SALMONELLA TYPHIMURIUM, Strain/Indicator: TA1535, Metabolic Activation: HAMSTER, LIVER, S-9, AROCLOR 1254, Method: STANDARD PLATE
  mutagenic call: inactive; negative
Test System: AMES SALMONELLA TYPHIMURIUM, Strain/Indicator: TA1535, Metabolic Activation: MOUSE, LIVER, S-9, AROCLOR 1254, Method: STANDARD PLATE
  mutagenic call: inactive; negative
Test System: AMES SALMONELLA TYPHIMURIUM, Strain/Indicator: TA1535, Metabolic Activation: NONE, Method: STANDARD PLATE
  mutagenic call: inactive; negative
Test System: AMES SALMONELLA TYPHIMURIUM, Strain/Indicator: TA1535, Metabolic Activation: RAT, LIVER, S-9, AROCLOR 1254, Method: STANDARD PLATE
  mutagenic call: inactive; negative
Test System: AMES SALMONELLA TYPHIMURIUM, Strain/Indicator: TA1537, Metabolic Activation: HAMSTER, LIVER, S-9, AROCLOR 1254, Method: STANDARD PLATE
  mutagenic call: inactive; negative
Test System: AMES SALMONELLA TYPHIMURIUM, Strain/Indicator: TA1537, Metabolic Activation: MOUSE, LIVER, S-9, AROCLOR 1254, Method: STANDARD PLATE
  mutagenic call: inactive; negative
Test System: AMES SALMONELLA TYPHIMURIUM, Strain/Indicator: TA1537, Metabolic Activation: NONE, Method: STANDARD PLATE
  mutagenic call: inactive; negative
Test System: AMES SALMONELLA TYPHIMURIUM, Strain/Indicator: TA1537, Metabolic Activation: RAT, LIVER, S-9, AROCLOR 1254, Method: STANDARD PLATE
  mutagenic call: inactive; negative
Test System: AMES SALMONELLA TYPHIMURIUM, Strain/Indicator: TA1538, Metabolic Activation: HAMSTER, LIVER, S-9, AROCLOR 1254, Method: STANDARD PLATE
  mutagenic call: inactive; negative
Test System: AMES SALMONELLA TYPHIMURIUM, Strain/Indicator: TA1538, Metabolic Activation: MOUSE, LIVER, S-9, AROCLOR 1254, Method: STANDARD PLATE
  mutagenic call: inactive; negative
Test System: AMES SALMONELLA TYPHIMURIUM, Strain/Indicator: TA1538, Metabolic Activation: NONE, Method: STANDARD PLATE
  mutagenic call: inactive; negative
Test System: AMES SALMONELLA TYPHIMURIUM, Strain/Indicator: TA1538, Metabolic Activation: RAT, LIVER, S-9, AROCLOR 1254, Method: STANDARD PLATE
  mutagenic call: inactive; negative

## CC(Cl)C(Br)CBr (centres undefined)
Test System: AMES SALMONELLA TYPHIMURIUM, Strain/Indicator: TA100, Metabolic Activation: RAT, LIVER, MICROSOMES, PHENOBARBITAL, Method: PREINCUBATION
  mutagenic call: active; positive
Test System: AMES SALMONELLA TYPHIMURIUM, Strain/Indicator: TA100, Metabolic Activation: RAT, LIVER, MICROSOMES, Method: PREINCUBATION
  mutagenic call: active; positive

## O=C(O)C(Cl)(Cl)Cl
End Point: IN VIVO MICRONUCLEUS, Test System: BONE MARROW POLYCHROMATIC ERYTHROCYTES, Species: MOUSE, Strain/Sex: C57BL/6JFBL10/ALPK/FEMALE, Route: IP INJECTION 2 TIMES AT 24 HR INTERVAL
  mutagenic call: inactive; negative
End Point: IN VIVO MICRONUCLEUS, Test System: BONE MARROW POLYCHROMATIC ERYTHROCYTES, Species: MOUSE, Strain/Sex: C57BL/6JFBL10/ALPK/MALE, Route: IP INJECTION 2 TIMES AT 24 HR INTERVAL
  mutagenic call: inactive; negative; a statistically significant increase was observed at 675 mg/kg after 2
Test System: AMES SALMONELLA TYPHIMURIUM, Strain/Indicator: RSJ100, Metabolic Activation: NONE, Method: PREINCUBATION
  mutagenic call: inactive; negative
Test System: AMES SALMONELLA TYPHIMURIUM, Strain/Indicator: RSJ100, Metabolic Activation: RAT LIVER S-9, Method: PREINCUBATION
  mutagenic call: inactive; negative
Test System: AMES SALMONELLA TYPHIMURIUM, Strain/Indicator: TA98, Metabolic Activation: NONE, Method: PREINCUBATION
  mutagenic call: inactive; negative
Test System: AMES SALMONELLA TYPHIMURIUM, Strain/Indicator: TA98, Metabolic Activation: RAT LIVER S-9, Method: PREINCUBATION
  mutagenic call: inactive; negative
Test System: AMES SALMONELLA TYPHIMURIUM, Strain/Indicator: TA98, Metabolic Activation: RAT, LIVER, S-9, PHENOBARBITAL AND 5,6-BENZOFLAVONE, Method: PREINCUBATION
  mutagenic call: inactive; negative
Test System: AMES SALMONELLA TYPHIMURIUM, Strain/Indicator: TA100, Metabolic Activation: NONE, Method: BAG VAPORIZATION
  mutagenic call: inactive; negative
Test System: AMES SALMONELLA TYPHIMURIUM, Strain/Indicator: TA100, Metabolic Activation: NONE, Method: FLUCTUATION TEST
  mutagenic call: active; positive
Test System: AMES SALMONELLA TYPHIMURIUM, Strain/Indicator: TA100, Metabolic Activation: NONE, Method: PREINCUBATION
  mutagenic call: inactive; negative
Test System: AMES SALMONELLA TYPHIMURIUM, Strain/Indicator: TA100, Metabolic Activation: RAT LIVER S-9, Method: PREINCUBATION
  mutagenic call: inactive; negative
Test System: AMES SALMONELLA TYPHIMURIUM, Strain/Indicator: TA100, Metabolic Activation: RAT, LIVER, S-9, AROCLOR 1254, Method: BAG VAPORIZATION
  mutagenic call: inactive; negative
Test System: AMES SALMONELLA TYPHIMURIUM, Strain/Indicator: TA100, Metabolic Activation: RAT, LIVER, S-9, AROCLOR 1254, Method: FLUCTUATION TEST
  mutagenic call: active; positive
Test System: AMES SALMONELLA TYPHIMURIUM, Strain/Indicator: TA100, Metabolic Activation: RAT, LIVER, S-9, PHENOBARBITAL AND 5,6-BENZOFLAVONE, Method: PREINCUBATION
  mutagenic call: inactive; negative
[1]
  mutagenic call: inactive; negative
Test System: AMES SALMONELLA TYPHIMURIUM, Strain/Indicator: TA102, Metabolic Activation: RAT LIVER S-9, AROCLOR 1254, Method: STANDARD PLATE
  mutagenic call: inactive; negative
Test System: MOUSE LYMPHOMA, Strain/Indicator: L5178Y (TK+/TK- -3.7.2C), Metabolic Activation: S-9
  mutagenic call: active; positive
